Results on 4 compounds are retold here after US20250368624A1, “M24B AMINOPEPTIDASE INHIBITORS FOR CARD8 INFLAMMASOME ACTIVATION” (Memorial Sloan-Kettering Cancer Center, priority 2022, published 2025).

pIC50: −log10 of the molar value. Where only a bound is given, the exact number is not on record here.

Series [1] has as its target recombinant human PEPD (Homo sapiens (Human), UniProt P12955). The series is described as follows: PEPD substrate assay (Ala-Pro cleavage, L-alanine assay kit). Conditions: for pIC50: 50 nM recombinant human PEPD, Ala-Pro 40 μM, 25° C. Type of series: biochemical. How it is done:
Protein purification. Human prolidase (PEPD) was generated and purified. XPNPEP1 in pET15-b containing a 6× His tag was expressed in E. coli Rosetta DE3 cells.
Substrate assays. For the PEPD assay, a solution of substrate (Ala-Pro) was prepared in DMSO. 24 μL of 50 nM recombinant human PEPD were added to a 384-well, black, clear-bottom plate (Corning) with 1 μL dipeptide Ala-Pro (final conc. 40 μM). […] For the AMC reporter assays, experiments were performed with cell lysates. 5 μL solution of substrate (2.5 mM Ala-AMC) was added the mixture of 10 μL HEK293T cell lysates (2.5 mg/ml) and 10 μL of indicated compounds in a 384-well, black, clear-bottom plate (Corning) to initiate the reaction. Substrate cleavage was measured as increasing fluorescence signal (Ex/Em: 380/460 nm) recorded at 25° C. for 20 mins. […] H-Lys(abz)-Pro-Pro-pNA substrate was added to a final concentration of 100 μM, and fluorescence was monitored (Ex/Em: 320/410) for 60 mins.

The target in series [2] is XPNPEP1 (Homo sapiens (Human), UniProt Q9NQW7). The series is described as follows: XPNPEP1 substrate assay (H-Lys(abz)-Pro-Pro-pNA). Type of series: biochemical. Conditions: for pIC50: XPNPEP1 3.5 nM, substrate 100 μM, 60 mins. The protocol: Protein purification. Human prolidase (PEPD) was generated and purified. XPNPEP1 in pET15-b containing a 6× His tag was expressed in E. coli Rosetta DE3 cells. Cells were induced with IPTG for 16 h at 37° C., pelleted and lysed in buffer A (20 mM Tris-HCl (pH 7.9), 500 mM NaCl, and 10% (v/v) glycerol) by sonication. Affinity purification chromatography was performed using TALON resin and according to previously published protocols (Li et al., 2008).
Sequence of XPNPEP1 (Q9NQW7 whole entry): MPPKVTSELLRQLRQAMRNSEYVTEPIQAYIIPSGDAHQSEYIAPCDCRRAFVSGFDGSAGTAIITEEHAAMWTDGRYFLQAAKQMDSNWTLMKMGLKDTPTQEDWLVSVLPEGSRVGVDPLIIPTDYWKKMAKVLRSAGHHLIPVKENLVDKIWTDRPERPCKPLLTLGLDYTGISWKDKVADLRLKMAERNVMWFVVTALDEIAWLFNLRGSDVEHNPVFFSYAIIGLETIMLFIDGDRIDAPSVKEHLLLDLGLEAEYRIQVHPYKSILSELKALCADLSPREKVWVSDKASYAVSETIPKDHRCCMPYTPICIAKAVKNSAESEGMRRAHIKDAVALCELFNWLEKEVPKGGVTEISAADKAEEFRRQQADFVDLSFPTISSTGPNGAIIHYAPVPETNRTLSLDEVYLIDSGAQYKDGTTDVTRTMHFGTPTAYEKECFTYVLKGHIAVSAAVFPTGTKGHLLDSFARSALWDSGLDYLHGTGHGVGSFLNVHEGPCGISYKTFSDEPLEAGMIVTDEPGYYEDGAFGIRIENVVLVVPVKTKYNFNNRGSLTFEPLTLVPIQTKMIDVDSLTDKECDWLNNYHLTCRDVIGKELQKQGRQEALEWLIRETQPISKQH
Substrate assays. For the PEPD assay, a solution of substrate (Ala-Pro) was prepared in DMSO. 24 μL of 50 nM recombinant human PEPD were added to a 384-well, black, clear-bottom plate (Corning) with 1 μL dipeptide Ala-Pro (final conc. 40 μM). Alanine liberated was measured as increasing fluorescence signal (Resorufin, Ex/Em: 535/587 nm) recorded at 25° C. using an L-alanine assay kit (Abcam, ab83394) at 25° C. according to manufacturer's instructions. For the AMC reporter assays, experiments were performed with cell lysates. 5 μL solution of substrate (2.5 mM Ala-AMC) was added the mixture of 10 μL HEK293T cell lysates (2.5 mg/ml) and 10 μL of indicated compounds in a 384-well, black, clear-bottom plate (Corning) to initiate the reaction. Substrate cleavage was measured as increasing fluorescence signal (Ex/Em: 380/460 nm) recorded at 25° C. for 20 mins. For XPNPEP1 enzymes (XPNPEP1 3.5 nM) were plated on a black 384-well clear bottom plate and treated with the indicated doses of compounds. H-Lys(abz)-Pro-Pro-pNA substrate was added to a final concentration of 100 μM, and fluorescence was monitored (Ex/Em: 320/410) for 60 mins.

Series [3] in a line: Stability in cell culture supernatants. It counts as in vitro ADME.
Series [4] has as its system OCI-AML2 cells. The series is described as follows: Propidium iodide uptake, OCI-AML2 cells. Type of series: cell-based. Conditions: 6.25 μM, compared to CQ31. The protocol: Propidium iodideflux analysis. 2×10^4 MV4;11 or OCI-AML2 cells were plated in 384-well, black, clear-bottom plate (Corning) in RPMI medium. Cells were then treated as indicated and propidium iodide (PI) was added at a final concentration of 10 μM. PI fluorescence was measured at (Ex/Em: 535/617 nm) recorded at 37° C. every 5 mins in a Cytation 5 Cell Imaging Multi-Mode Reader (BioTek). The obtained measurements were baseline corrected to vehicle/DMSO and normalized to maximum response.

Series [5] concerns MV4;11 CASP1-/- cells. The series is described as follows: CellTiter-Glo cell viability, CASP1-/- MV4;11 cells. Conditions: Homo sapiens, MV4-11; 24 h, CTG. Type of series: cell-based. The protocol: Cloning. CASP1^−/− MV4;11 cells^12; CARD8^−/− MV4;11, THP-1, OCI-AML2 cells^14; DPP8/9^−/− THP-1^12; PEPD^−/−, XPNPEP1^−/−, PEPD XPNPEP1^−/− THP-1 cells were generated. Plasmids for CARD8 variants, CASP1, GSDMD, dTAG-CARD8^ZUC were cloned as described previously (Hollingsworth et al., 2021; Johnson et al., 2018; Sharif et al., 2021).
(§1) CellTiter-Glo cell viability and CytoTox-Fluor cell death assays. Cells were plated (2,000 cells per well) in white, 384-well clear-bottom plates (Corning) using an EL406 Microplate Washer/Dispenser (BioTek) in 25 μL final volume of medium. To the cell plates were added compounds at different concentrations using a pintool (CyBio) and the plates were allowed to incubate in the incubator. After incubation for indicated times, CytoTox-Fluor reagent (Promega, G9262) was added according to the manufacturer's protocol. The assay plates were then incubated for another 30 min before fluorescence was recorded using a Cytation 5 Cell Imaging Multi-Mode Reader (BioTek). Next, CellTiter-Glo reagent (Promega, G7573) was subsequently added to the assay plates following the manufacturer's protocol. Assay plates were shaken on an orbital shaker for 2 min and incubated at 25° C. for 10 min. Luminescence was then read using a Cytation 5 Cell Imaging Multi-Mode Reader (BioTek).
(ATP-based viability assays read luminescence as a measure of living cells.)

The subject of series [6] is MV4;11 WT cells. The series is described as follows: CellTiter-Glo cell viability, WT MV4;11 cells. Type of series: cell-based. Conditions: 24 h, CTG. How it is done: as §1
Series [7] has as its system primary bone marrow-derived macrophages (BMDMs) and mouse RAW264.7 cells. Put plainly: LDH release and GSDMD cleavage in BMDMs and RAW264.7 cells (mouse NLRP1). It counts as cell-based. Conditions: VbP 10 μM, CQ31/CQ80 20 μM, 24 h. The protocol: Mouse BMDM isolation and culture. Bone marrow was harvested from the femurs and tibias of 7-12-week-old C57BL/6J mice. Briefly, femurs and tibias were harvested from mice and crushed with a mortar and pestle in cold 1×PBS supplemented with 2.5% FBS. The mixture was passed through a 70-μm nylon cell strainer. RBCs were lysed for 4-5 min on ice in 1×RBC lysis buffer (Biolegend) and cells were centrifuged at 300×g for 5 min at 4° C. The cell pellet was washed in cold 1×PBS supplemented with 2.5% FBS before being passed again through in a 70-μm nylon cell strainer and counted. Counted cells were plated on non-tissue culture 10-cm plates at 5-10×10^6 cells per plate in DMEM supplemented with 10% FBS and 15-20% L-cell media. Cells were incubated at 37° C. for 6 days before replating and assaying as indicated.
LDH cytotoxicity and immunoblotting assays. HEK293T cells were transiently transfected and treated with inhibitors as indicated. MV4;11, OCI AML2, THP-1, and RAW264.7 cells were plated in 12-well culture plates at 5×10^5 cells/well and treated as indicated. Supernatants were analyzed for LDH activity using the Pierce LDH Cytotoxicity Assay Kit (Life Technologies). LDH activity was quantified relative to a lysis control where cells were lysed in 80 μL of a 9% Triton X-100 solution. For immunoblotting, cells were washed 2× in PBS (pH=7.4), resuspended in PBS, and lysed by sonication. Protein concentrations were determined and normalized using the DCA Protein Assay kit (Bio-Rad). The samples were separated by SDS-PAGE, immunoblotted, and visualized using the Odyssey Imaging System (Li-Cor).
In general terms: Release of lactate dehydrogenase indicates damage to the cell membrane.

For series [8], the system named is N/TERT-1 keratinocytes. The series is described as follows: Cell viability of N/TERT-1 keratinocytes (NLRP1 inflammasome). It counts as cell-based, human. Conditions: VbP 10 μM, CQ compounds 20 μM, 24 h, CTG. The protocol: Cell Culture. HEK293T, THP-1, RAW264.7 cells were purchased from ATCC. MV4;11, OCI-AML2 cells were purchased from DSMZ. N/TERT1 cells were a gift from the Rheinwald Lab (Dickson et al., 2000). HEK293T and RAW264.7 cells were grown in Dulbecco's Modified Eagle's Medium (DMEM) with L-glutamine and 10% fetal bovine serum (FBS). N/TERT1 cells were grown in Keratinocyte serum free medium (KSFM) supplemented with 1× penicillin/streptomycin, bovine pituitary extract (25 μg/ml) and epidermal growth factor (EGF) (0.2 ng/ml). All other cell lines were grown in Roswell Park Memorial Institute (RPMI) medium 1640 with L-glutamine and 10% fetal bovine serum (FBS). All cells were grown at 37° C. in a 5% CO2 atmosphere incubator. Cell lines were regularly tested for mycoplasma using the MycoAlert™ Mycoplasma Detection Kit (Lonza).
as §1

Sequence of recombinant human PEPD (P12955 whole entry): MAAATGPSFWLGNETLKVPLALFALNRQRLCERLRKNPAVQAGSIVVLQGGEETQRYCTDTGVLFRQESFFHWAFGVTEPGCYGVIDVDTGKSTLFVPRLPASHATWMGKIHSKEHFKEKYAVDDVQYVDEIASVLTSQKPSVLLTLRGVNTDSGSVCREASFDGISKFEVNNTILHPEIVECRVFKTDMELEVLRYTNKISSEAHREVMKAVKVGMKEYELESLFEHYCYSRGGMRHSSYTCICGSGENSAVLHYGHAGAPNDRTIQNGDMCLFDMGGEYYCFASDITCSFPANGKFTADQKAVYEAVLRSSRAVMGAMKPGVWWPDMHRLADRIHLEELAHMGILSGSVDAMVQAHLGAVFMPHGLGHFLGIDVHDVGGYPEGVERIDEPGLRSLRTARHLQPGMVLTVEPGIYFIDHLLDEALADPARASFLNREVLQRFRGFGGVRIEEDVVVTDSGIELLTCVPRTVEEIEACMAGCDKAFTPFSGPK

The term pIC50 denotes the IC50 on a negative log10 scale, so that one unit is a factor of ten. In the case of `CC(C)C[C@H](NC(=O)[C@@H]1CCCN1C(=O)[C@@H](O)[C@H](N)CC(C)C)C(=O)NCCc1ccccc1` [CQ116, (S)-1-((2S,3R)-3-amino-2-hydroxy-5-methylhexanoyl)-N—((S)-4-methyl-1-oxo-1-(phenethylamino)pentan-2-yl)pyrrolidine-2-carboxamide], the negative logarithm of the IC50 (pIC50) in series [1] was 5.24; in series [2], 5.47. Also, the “stability in cell culture supernatants (in words)” value in series [3] is “completely stable”.
In the case of `COC(=O)[C@@H](NC(=O)[C@@H]1CCCN1C(=O)[C@@H](O)[C@H](N)CC(C)C)C(C)C` [CQ78, Methyl ((2S,3R)-3-amino-2-hydroxy-5-methylhexanoyl)-L-prolyl-L-valinate], the negative-log IC50 (pIC50) was 5.92 in series [1]; 4.39 in series [2]; less than 4.70 in series [5]; 6.35 in series [6] (Homo sapiens, MV4-11). Besides, the “lytic cell death by uptake of propidium iodide” value in series [4] is listed as “more rapid lytic cell death”.
Consider `CC(C)C[C@@H](N)[C@H](O)C(=O)N1CCC[C@H]1C(=O)OC(C)(C)C` [CQ34, tert-butyl ((2S,3R)-3-amino-2-hydroxy-5-methylhexanoyl)-L-prolinate], for which the “PEPD inhibition (in words)” value in series [1] was “inhibited PEPD and XPNPEP1 inhibitors similarly”. Further, the “XPNPEP1 inhibition (in words)” value in series [2] was “inhibited PEPD and XPNPEP1 inhibitors similarly”. In series [3], the “stability in cell culture supernatants (in words)” value is recorded as “considerably more stable than CQ31 or CQ94”. For the same compound, the “time after which completely hydrolyzed” value in series [3] (cell culture supernatants) is recorded as not above 8 h. For the same compound, the “cytotoxicity to MV4;11 cells (in words)” value in series [6] is “slightly more toxic”.
In the case of `CC(C)[C@H](N)C(=O)N1CCC[C@H]1B(O)O` [VbP, Val-boroPro, reference compound], the “pyroptosis (LDH release and GSDMD cleavage)” value in series [7] was “induced pyroptosis”. For the same compound, in series [8], the “cell death in N/TERT-1 keratinocytes” value was “induced cell death”.
